Data published in patent US6492416B1, “4,5-diaryl-3(2H)-furanone derivatives as cyclooxygenase-2 inhibitors” (Pacific Corporation, priority 1999, dated 2002).
Converted amounts (≈) assume the structure as drawn.

Legend:
male SD rats = assay: Antiinflammatory potency by adjuvant arthritis (AA); type: in vivo; conditions: daily oral dose day 14 to day 22, rat
Procedure: Arthritis was induced in male SD rats weighing 180-200 g by subcutaneous injection of Mycobacterium butyricum mixed in 0.1 ml of incomplete Freund's adjuvanat into the base of the tail. The foot volumes were measured using a displacement plethysomometer 14 days after the injection of the adjuvant. Animals with paw volumes greater than the normal paw volumes (without the adjuvant treatment) by 0.37 ml were selected, and then randomized. A designated daily dose of a compound of this invention, which was suspended in 1% aqueous methylcellulose solution, was administered to the randomized rats with arthritis by oral gavage daily once beginning on day 14 after the injection of the adjuvant. The administration of the compound continued till day 22 after the injection of the adjuvant, and the paw volumes were measured on daily basis using a displacement plethysmometer.
% Inhibition of AA=(1−Δtreated/Δcontrol)×100
wherein Δtreated=[(paw volume at day 22)/(paw volume at day 14)−1] for a drug-administered rat, and Δcontrol=[(paw volume at day 22)/(paw volume at day 14)−1] for a rat without drug administration.
ED50 value was determined b a dose-response curve for each compound.

COX-1 = target: T1, COX-1 (Mus musculus, UniProt P22437); assay: Evaluation of COX-1 activity: PGE2 formation in mouse peritoneal macrophages without aspirin and LPS treatment; type: cell-based
T1 sequence (P22437 27-602): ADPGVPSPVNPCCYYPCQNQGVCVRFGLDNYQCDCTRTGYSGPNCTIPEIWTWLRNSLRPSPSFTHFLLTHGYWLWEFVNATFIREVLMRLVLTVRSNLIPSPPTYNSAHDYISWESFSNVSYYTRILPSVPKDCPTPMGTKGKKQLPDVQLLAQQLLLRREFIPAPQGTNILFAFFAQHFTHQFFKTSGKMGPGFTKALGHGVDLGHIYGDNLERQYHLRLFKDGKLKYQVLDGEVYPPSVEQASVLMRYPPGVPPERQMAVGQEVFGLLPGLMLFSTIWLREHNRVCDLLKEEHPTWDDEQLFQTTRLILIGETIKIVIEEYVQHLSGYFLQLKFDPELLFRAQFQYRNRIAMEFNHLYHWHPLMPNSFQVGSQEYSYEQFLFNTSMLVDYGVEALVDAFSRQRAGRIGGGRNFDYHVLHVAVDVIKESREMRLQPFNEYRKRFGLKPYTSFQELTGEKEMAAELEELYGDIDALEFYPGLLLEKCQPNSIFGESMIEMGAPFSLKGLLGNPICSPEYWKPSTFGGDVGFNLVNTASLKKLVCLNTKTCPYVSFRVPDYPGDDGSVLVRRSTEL
Summary of the method: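 Peritoneal macrophages from C57BL/6 mice, without aspirin or LPS treatment, were plated at 1×10^6 cells/ml and fixed 2 h at 37 °C. Cells were preincubated 10 min, then given 10 μM arachidonic acid plus compound for 10 min; PGE2 was measured by RIA or EIA. IC50 came from 4–5 concentrations.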

Compound	Adjuvant Arthritis ED50 (male SD rats)	IC50, μg/ml COX-1 (COX-1)	melting point
CC1(C)OC(c2ccc(S(C)(=O)=O)cc2)=C(c2cccc(F)c2)C1=O [Example 4, 2,2-Dimethyl-4-(3-fluorophenyl)-5-{4-(methylsulfonyl)phenyl}-3(2H)-furanone]	0.07 mg/kg body weight	5 µg/mL (≈ 13.9 µM)	178 to 179 °C
CC1(C)OC(c2ccc(S(C)(=O)=O)cc2)=C(c2cc(F)cc(F)c2)C1=O [Example 11, 4-(3,5-Difluorophenyl)-2,2-dimethyl-5-{4-(methylsulfonyl)phenyl}-3(2H)-furanone]	0.03 mg/kg body weight	20 µg/mL (≈ 52.9 µM)	141 to 142 °C
CC1(C)OC(c2ccc(S(N)(=O)=O)cc2)=C(c2cccc(Cl)c2)C1=O [Example 126]	0.03 mg/kg body weight	3.82 µg/mL (≈ 10.1 µM)	194 to 195 °C
CC1(C)OC(c2ccc(S(N)(=O)=O)cc2)=C(c2cccc(F)c2)C1=O [Example 129, 5-{4-(aminosulfonyl)phenyl}-2,2-dimethyl-4-(3-fluorophenyl)-3(2H)-furanone]	0.02 mg/kg body weight	1.02 µg/mL (≈ 2.82 µM)	–
CC1(C)OC(c2ccc(S(N)(=O)=O)cc2F)=C(c2ccc(F)cc2)C1=O [Example 334]	0.09 mg/kg body weight	3 µg/mL (≈ 7.91 µM)	95 to 97 °C
